Assays:
[1] = Cytotoxicity in mock-infected MT4 CMV-EGFP cells; format: cell-based, human; conditions: human, fluorescence reduced by 50%
Source text: (§1) Analogously, MT4 cells are engineered with GFP and the constitutional cytomegalovirus (CMV) promotor. This cell line is designated MT4 CMV-EGFP, and can be used for the in vitro evaluation of cytotoxicity of investigational compounds. In this cell line, GFP levels are comparably to those of infected MT4 LTR-EGFP cells. Cytotoxic investigational compounds reduce GFP levels of mock-infected MT4 CMV-EGFP cells.
(§2) Effective concentration values such as 50% effective concentration (EC50) can be determined and are usually expressed in μM. An EC50 value is defined as the concentration of test compound that reduces the fluorescence of HIV-infected cells by 50%. The 50% cytotoxic concentration (CC50 in μM) is defined as the concentration of test compound that reduces fluorescence of the mock-infected cells by 50%. The ratio of CC50 to EC50 is defined as the selectivity index (SI) and is an indication of the selectivity of the anti-HIV activity of the inhibitor. The ultimate monitoring of HIV-1 infection and cytotoxicity is done using a scanning microscope. Image analysis allows very sensitive detection of viral infection. Measurements are done before cell necrosis, which usually takes place about five days after infection, in particular measurements are performed three days after infection.

[2] = test system: wild-type HIV-IIIB strain; assay: Antiviral analysis EGFP: anti-HIV activity in MT4 LTR-EGFP cells; format: cell-based, HIV-1; conditions: fluorescence of HIV-infected cells reduced by 50%, three days after infection
Protocol: The compounds of the present invention were tested for anti-viral activity in a cellular assay, which was performed according to the following procedure.
The human T-cell line MT4 is engineered with Green Fluorescent Protein (GFP) and an HIV-specific promoter, HIV-1 long terminal repeat (LTR). This cell line is designated MT4 LTR-EGFP, and can be used for the in vitro evaluation of anti-HIV activity of investigational compounds. In HIV-1 infected cells, the Tat protein is produced which upregulates the LTR promotor and finally leads to stimulation of the GFP reporter production, allowing measuring ongoing HIV-infection fluorometrically.
as §2
The following Table 5 lists EC50 values, expressed in micromole/liter, against wild-type HIV-IIIB strain, for a selected number of compounds of the invention.

MT4 CMV-EGFP cells = assay: Cytotoxicity in mock-infected MT4 CMV-EGFP cells; format: cell-based, human; conditions: fluorescence reduced by 50%
Source text: as §1, §2

[3] = Human immunodeficiency virus 1, 72 h

N#Cc1cc2ccccc2n(-c2ccc([N+](=O)[O-])cc2)c1=O [compound 1]
CC50 at 3 days [1]: > 100 µM
EC50 [2, 3]: 2.89 µM

Cc1c(C#N)c(=O)n(-c2ccc([N+](=O)[O-])cc2)c2ccccc12 [compound 7]
CC50 at 3 days [1]: > 100 µM
EC50 [2, 3]: 9.34 µM

Cn1c(=O)oc2cc(-n3c(=O)c(C#N)cc4ccccc43)ccc21 [compound 8]
CC50 at 3 days [1]: > 100 µM
EC50 [2, 3]: 12.5 µM

COc1ccc2cc(C#N)c(=O)n(-c3ccc([N+](=O)[O-])cc3)c2c1 [compound 9]
CC50 at 3 days [1]: > 32 µM
EC50 [2, 3]: 2.48 µM

N#Cc1cc2ccc(O)cc2n(-c2ccc([N+](=O)[O-])cc2)c1=O [compound 10]
CC50 at 3 days [1]: > 32 µM
EC50 [2, 3]: 13.3 µM

N#Cc1cc2ccc(N)cc2n(-c2ccc([N+](=O)[O-])cc2)c1=O [compound 24]
CC50 at 3 days [1]: > 32 µM
EC50 [2, 3]: 1.48 µM

N#Cc1cc2ccc(-n3cccc3)cc2n(-c2ccc([N+](=O)[O-])cc2)c1=O [compound 25]
CC50 at 3 days [1]: 97.2 µM
EC50 [2, 3]: 0.95 µM

N#Cc1cc2ccc(-n3cnnc3)cc2n(-c2ccc([N+](=O)[O-])cc2)c1=O [compound 26]
CC50 at 3 days [1]: > 100 µM
EC50 [2, 3]: 80.9 µM

N#Cc1cc2ccc(-n3ccnc3)cc2n(-c2ccc([N+](=O)[O-])cc2)c1=O [compound 27]
CC50 at 3 days [1]: > 100 µM
EC50 [2, 3]: 1.13 µM

N#Cc1cc2ccc(-c3ccccc3)cc2n(-c2ccc([N+](=O)[O-])cc2)c1=O [compound 28]
CC50 at 3 days [1]: > 32 µM
EC50 [2, 3]: 1.34 µM

N#Cc1cc2ccc(OP(=O)(O)O)cc2n(-c2ccc([N+](=O)[O-])cc2)c1=O [compound 70]
CC50 at 3 days [1]: > 32 µM
EC50 [2, 3]: 17.5 µM

N#Cc1cc2ccc(OCCNCCO)cc2n(-c2ccc([N+](=O)[O-])cc2)c1=O [compound 71]
CC50 at 3 days [1]: > 32 µM
EC50 [2, 3]: > 32 µM

COc1ccc2c(c1)cc(C#N)c(=O)n2-c1ccc([N+](=O)[O-])cc1 [compound 83]
CC50 at 3 days [1]: > 32 µM
EC50 [2, 3]: > 32 µM

COc1cc2cc(C#N)c(=O)n(-c3ccc([N+](=O)[O-])cc3)c2cc1OC [compound 93]
CC50 at 3 days [1]: > 32 µM
EC50 [2, 3]: 7.01 µM

N#Cc1cc2cc(O)c(O)cc2n(-c2ccc([N+](=O)[O-])cc2)c1=O [compound 94]
CC50 at 3 days [1]: > 32 µM
EC50 [2, 3]: > 32 µM

N#Cc1cc2cccnc2n(-c2ccc([N+](=O)[O-])cc2)c1=O [compound 99]
CC50 at 3 days [1]: > 32 µM
EC50 [2, 3]: 19.3 µM

N#Cc1cc2ccc(=O)[nH]c2n(-c2ccc([N+](=O)[O-])cc2)c1=O [compound 100]
CC50 at 3 days [1]: > 32 µM
EC50 [2, 3]: > 32 µM

N#Cc1c(N)c2ccccc2n(-c2ccc([N+](=O)[O-])cc2)c1=O [compound 101]
CC50 at 3 days [1]: > 32 µM
EC50 [2, 3]: > 32 µM

N#Cc1c(N)c2ccc(Cl)cc2n(-c2ccc(Cl)nc2)c1=O [compound 103]
CC50 at 3 days [1]: 85.2 µM
EC50 [2, 3]: 3.61 µM

N#Cc1c(N)c2ccc(Br)cc2n(-c2ccc([N+](=O)[O-])cc2)c1=O [compound 118]
CC50 at 3 days [1]: > 32 µM
EC50 [2, 3]: 0.72 µM

N#Cc1c(N)c2ccc(-c3cccs3)cc2n(-c2ccc([N+](=O)[O-])cc2)c1=O [compound 119]
CC50 at 3 days [1]: > 100 µM
EC50 [2, 3]: 0.52 µM

Cc1ccc(-n2c(=O)c(C#N)c(N)c3ccc(Br)cc32)cc1C#N [compound 121]
CC50 at 3 days [1]: 55.2 µM
EC50 [2, 3]: 0.75 µM

Cc1ccc(-n2c(=O)c(C#N)c(N)c3ccc(-c4ccccn4)cc32)cc1C#N [compound 123]
CC50 at 3 days [1]: > 100 µM
EC50 [2, 3]: > 100 µM

Cc1ccc2c(N(C)C)c(C#N)c(=O)n(-c3ccc([N+](=O)[O-])cc3)c2n1 [compound 127]
CC50 at 3 days [1]: > 32 µM
EC50 [2, 3]: 22.4 µM

N#Cc1c(NCCN2CCCC2)c2ccccc2n(-c2ccc([N+](=O)[O-])cc2)c1=O [compound 130]
CC50 at 3 days [1]: > 100 µM
EC50 [2, 3]: 3.71 µM

COc1ccc2c(N)c(C#N)c(=O)n(-c3ccc(C)c(C#N)c3)c2c1 [compound 145]
CC50 at 3 days [1]: > 100 µM
EC50 [2, 3]: 3.01 µM

COc1ccc2cc(C#N)c(=O)n(-c3ccc(C)c(C#N)c3)c2c1 [compound 146]
CC50 at 3 days [1]: > 100 µM
EC50 [2, 3]: 4.67 µM

Cc1ccc(-n2c(=O)c(C#N)cc3ccc(OCCCN(C)C)cc32)cc1C#N [compound 147]
CC50 at 3 days [1]: 83.9 µM
EC50 [2, 3]: 0.85 µM

Cc1ccc(-n2c(=O)c(C#N)cc3ccc(OCCCN4CCCC4)cc32)cc1C#N [compound 148]
CC50 at 3 days [1]: 51.5 µM
EC50 [2, 3]: 0.64 µM

Cc1ccc(-n2c(=O)c(C#N)cc3ccc(Br)cc32)cc1C#N [compound 149]
CC50 at 3 days [1]: > 100 µM
EC50 [2, 3]: 2.74 µM

Cc1ccc(-n2c(=O)c(C#N)cc3ccc(-c4cc[nH]c4)cc32)cc1C#N [compound 150]
CC50 at 3 days [1]: > 100 µM
EC50 [2, 3]: 0.56 µM

CC(=O)NCc1cccc(-c2ccc3cc(C#N)c(=O)n(-c4ccc(C)c(C#N)c4)c3c2)c1 [compound 151]
CC50 (MT4 CMV-EGFP cells): > 100 µM
EC50 [2]: 2.22 µM

Cc1ccc(-n2c(=O)c(C#N)cc3ccc(-c4cccc(CN(C)C)c4)cc32)cc1C#N [compound 152]
CC50 (MT4 CMV-EGFP cells): 3.95 µM
EC50 [2]: 0.58 µM

Cc1ccc(-n2c(=O)c(C#N)cc3ccc(-c4cc[nH]n4)cc32)cc1C#N [compound 153]
CC50 (MT4 CMV-EGFP cells): > 100 µM
EC50 [2]: 0.53 µM

Cc1ccc(-n2c(=O)c(C#N)cc3ccc(-c4cccn4C)cc32)cc1C#N [compound 154]
CC50 (MT4 CMV-EGFP cells): > 100 µM
EC50 [2]: 10 µM

CC(=O)Nc1cccc(-c2ccc3cc(C#N)c(=O)n(-c4ccc(C)c(C#N)c4)c3c2)c1 [compound 155]
CC50 (MT4 CMV-EGFP cells): > 100 µM
EC50 [2]: 11 µM

Cc1ccc(-n2c(=O)c(C#N)cc3ccc(-c4cccc(CO)c4)cc32)cc1C#N [compound 156]
CC50 (MT4 CMV-EGFP cells): 64.9 µM
EC50 [2]: 2.58 µM

Cc1ccc(-n2c(=O)c(C#N)cc3ccc(NCCCN4CCCC4)cc32)cc1C#N [compound 157]
CC50 at 3 days [1]: 52.7 µM
EC50 [2, 3]: 0.89 µM

Cc1ccc(-n2c(=O)c(C#N)cc3ccc(-c4cccc(CNC(=O)CN(C)C)c4)cc32)cc1C#N [compound 158]
CC50 at 3 days [1]: 11.5 µM
EC50 [2, 3]: 0.21 µM

Cc1ccc(-n2c(=O)c(C#N)cc3ccc(-c4ccccn4)cc32)cc1C#N [compound 159]
CC50 at 3 days [1]: 86 µM
EC50 [2, 3]: 1.74 µM

Cc1ccc(-n2c(=O)c(C#N)cc3ccc(Cl)cc32)cc1C#N [compound 161]
CC50 (MT4 CMV-EGFP cells): > 100 µM
EC50 [2]: 6.1 µM

Cc1ccc(-n2c(=O)c(C#N)c(N)c3ccc(Cl)cc32)cc1C#N [compound 162]
CC50 (MT4 CMV-EGFP cells): > 100 µM
EC50 [2]: 0.87 µM

Cc1ccc(-n2c(=O)c(C#N)cc3ccccc32)cc1C#N [compound 163]
CC50 at 3 days [1]: > 100 µM
EC50 [2, 3]: 9.25 µM

Cc1ccc(-n2c(=O)c(C#N)c(NCCN)c3ccccc32)cc1C#N [compound 164]
CC50 at 3 days [1]: 12.9 µM
EC50 [2, 3]: 0.63 µM

CNc1c(C#N)c(=O)n(-c2ccc(C)c(C#N)c2)c2ccccc12 [compound 165]
CC50 (MT4 CMV-EGFP cells): > 100 µM
EC50 [2]: 7.94 µM

Cc1ccc(-n2c(=O)c(C#N)c(N)c3ccccc32)cc1C#N [compound 166]
CC50 (MT4 CMV-EGFP cells): > 100 µM
EC50 [2]: 3.01 µM
